Data taken from the NIST ThermoML archive (doi:10.1021/je8003782).

Assay: xn = mol fraction of the nth substance listed
Details: 101 kPa, Liquid

CC(=O)OC(C)=O [ethanoic anhydride] + CC(=O)O
Details	mass density [kg/m3]	viscosity [mPa·s]
293.15 K, x2 = 0	1080.89	0.888
293.15 K, x2 = 0.1	1079.28	0.905
293.15 K, x2 = 0.2	1077.19	0.92
293.15 K, x2 = 0.2999	1074.93	0.934
293.15 K, x2 = 0.3996	1072.42	0.954
293.15 K, x2 = 0.4999	1069.56	0.975
293.15 K, x2 = 0.5965	1066.68	1.004
293.15 K, x2 = 0.6992	1063.1	1.041
293.15 K, x2 = 0.8004	1059.19	1.084
293.15 K, x2 = 0.8976	1054.94	1.145
298.15 K, x2 = 0	1074.8	0.829
298.15 K, x2 = 0.1	1073.24	0.844
298.15 K, x2 = 0.2	1071.18	0.859
298.15 K, x2 = 0.2999	1068.96	0.872
298.15 K, x2 = 0.3996	1066.47	0.887
298.15 K, x2 = 0.4999	1063.66	0.908
298.15 K, x2 = 0.5965	1060.8	0.933
298.15 K, x2 = 0.6992	1057.27	0.966
298.15 K, x2 = 0.8004	1053.41	1.008
298.15 K, x2 = 0.8976	1049.21	1.057
303.15 K, x2 = 0	1068.7	0.778
303.15 K, x2 = 0.1	1067.18	0.793
303.15 K, x2 = 0.2	1065.17	0.805
303.15 K, x2 = 0.2999	1062.98	0.819
303.15 K, x2 = 0.3996	1060.53	0.831
303.15 K, x2 = 0.4999	1057.75	0.849
303.15 K, x2 = 0.5965	1054.93	0.874
303.15 K, x2 = 0.6992	1051.45	0.903
303.15 K, x2 = 0.8004	1047.64	0.936
303.15 K, x2 = 0.8976	1043.48	0.985
308.15 K, x2 = 0	1062.61	0.729
308.15 K, x2 = 0.1	1061.12	0.742
308.15 K, x2 = 0.2	1059.15	0.754
308.15 K, x2 = 0.2999	1057	0.768
308.15 K, x2 = 0.3996	1054.57	0.777
308.15 K, x2 = 0.4999	1051.83	0.793
308.15 K, x2 = 0.5965	1049.05	0.814
308.15 K, x2 = 0.6992	1045.62	0.842
308.15 K, x2 = 0.8004	1041.85	0.873
308.15 K, x2 = 0.8976	1037.75	0.919
313.15 K, x2 = 0	1056.49	0.688
313.15 K, x2 = 0.1	1055.06	0.699
313.15 K, x2 = 0.2	1053.12	0.71
313.15 K, x2 = 0.2999	1051	0.721
313.15 K, x2 = 0.3996	1048.6	0.734
313.15 K, x2 = 0.4999	1045.9	0.748
313.15 K, x2 = 0.5965	1043.16	0.766
313.15 K, x2 = 0.6992	1039.78	0.791
313.15 K, x2 = 0.8004	1036.06	0.82
313.15 K, x2 = 0.8976	1032.01	0.86
318.15 K, x2 = 0	1050.38	0.648
318.15 K, x2 = 0.1	1048.96	0.659
318.15 K, x2 = 0.2	1047.07	0.666
318.15 K, x2 = 0.2999	1044.99	0.678
318.15 K, x2 = 0.3996	1042.62	0.688
318.15 K, x2 = 0.4999	1039.96	0.703
318.15 K, x2 = 0.5965	1037.26	0.721
318.15 K, x2 = 0.6992	1033.93	0.743
318.15 K, x2 = 0.8004	1030.27	0.77
318.15 K, x2 = 0.8976	1026.28	0.8
323.15 K, x2 = 0	1044.24	0.61
323.15 K, x2 = 0.1	1042.87	0.621
323.15 K, x2 = 0.2	1041.01	0.627
323.15 K, x2 = 0.2999	1038.96	0.638
323.15 K, x2 = 0.3996	1036.63	0.649
323.15 K, x2 = 0.4999	1034.01	0.661
323.15 K, x2 = 0.5965	1031.34	0.676
323.15 K, x2 = 0.6992	1028.06	0.699
323.15 K, x2 = 0.8004	1024.46	0.723
323.15 K, x2 = 0.8976	1020.54	0.751
328.15 K, x2 = 0	1038.07	0.58
328.15 K, x2 = 0.1	1036.74	0.587
328.15 K, x2 = 0.2	1034.94	0.595
328.15 K, x2 = 0.2999	1032.91	0.603
328.15 K, x2 = 0.3996	1030.61	0.614
328.15 K, x2 = 0.4999	1028.04	0.625
328.15 K, x2 = 0.5965	1025.39	0.639
328.15 K, x2 = 0.6992	1022.18	0.66
328.15 K, x2 = 0.8004	1018.64	0.68
328.15 K, x2 = 0.8976	1014.79	0.708
333.15 K, x2 = 0	1031.9	0.548
333.15 K, x2 = 0.1	1030.63	0.556
333.15 K, x2 = 0.2	1028.83	0.562
333.15 K, x2 = 0.2999	1026.84	0.57
333.15 K, x2 = 0.3996	1024.57	0.58
333.15 K, x2 = 0.4999	1022.05	0.59
333.15 K, x2 = 0.5965	1019.44	0.605
333.15 K, x2 = 0.6992	1016.3	0.622
333.15 K, x2 = 0.8004	1012.82	0.64
333.15 K, x2 = 0.8976	1009.03	0.665
338.15 K, x2 = 0	1025.7	0.521
338.15 K, x2 = 0.1	1024.48	0.53
338.15 K, x2 = 0.2	1022.71	0.533
338.15 K, x2 = 0.2999	1020.75	0.542
338.15 K, x2 = 0.3996	1018.52	0.551
338.15 K, x2 = 0.4999	1016.04	0.558
338.15 K, x2 = 0.5965	1013.48	0.575
338.15 K, x2 = 0.6992	1010.39	0.59
338.15 K, x2 = 0.8004	1006.97	0.605
338.15 K, x2 = 0.8976	1003.24	0.629
